One assay deals with LAG-3 protein. Put plainly: Immunohistochemistry of LAG-3 protein expression in in situ lesion of GL261 glioma mice. Format: in vivo, C57BL/6 mice. As to conditions: 7 days, chlorogenic acid 40 mg/kg intraperitoneal, temozolomide 20 mg/kg oral, saline control 69%. Here is the method: GL261 glioma cells in exponential phase of growth were prepared as GL261 single cell suspension at a concentration of 5×10^5/μL. After anesthetized with 0.75% pentobarbital sodium at 6 μL/g, the hair at the puncture site was stripped, and the heads of mice were fixed with ALC-H mouse brain stereotactic apparatus for longitudinal incision of scalp. […] GL261 single cell suspension was injected using micro pump at 2.5 μL/min, and the pinpoint was sealed with bone wax, then the incision of scalp was carefully sutured. Totally, 35 mice were inoculated, and the remained 5 mice were normal. The dead mice were removed, and C57BL/6 mice inoculated with GL261 glioma cells were randomly divided to 3 groups, including the saline control group (NC group), chlorogenic acid injection group (CA group), and temozolomide (TMZ) positive control group. Amongst, CA group is intraperitoneally injected with 40 mg/kg chlorogenic acid everyday, NC group is injected with the same volume of saline, and TMZ treatment group orally takes 20 mg/kg temozolomide. […]
After completion of experiment, in situ lesion of each group mice was cut, while the brain tissue of 5 remained normal mice mentioned in step 2.2 was cut. […] The immunohistochemical results were analyzed by semiquantitative method, and finally, the expression rate of LAG-3 protein in different tissue sample was subjected to statistical analysis.

Assay [1] relates to LAG-3. Put plainly: Content of LAG-3 in JurkatE6-1 cells, ELISA with human lymphocyte activation gene 3 detection kit. In kind it is cell-based. As to conditions: 48 h. The method, then:
(§1) CLL cells and JurkatE6-1 cells in exponential phase of growth with good conditions were inoculated in 6 well plate at a concentration of 5×10^5/ml. Each kind of cells were set four groups, and each group has three repeat holes for administration. Amongst, three chlorogenic acid groups received the drug dissolved in blank 1640 medium (1 mL) at the desired concentration, while the blank control group received the same volume of blank 1640 medium. [table] In this example, by ELISA experiment, the activity of LAG-3 in cells of each group was determined using human lymphocyte activation gene 3 detection kit. After cells of each group acted with corresponding drugs for 48 h, cell culture fluid of each group was collected and divided into two parts. The protein of one part was quantitated using BCA method, and the activity of LAG-3 in cells of each group was determined using human lymphocyte activation gene 3 detection kit, to calculate the content of LAG-3 in each group.
A general note: In an ELISA, binding on a coated surface is turned into a signal by an enzyme label.

Assay [2] relates to LAG-3. As to the kind of experiment: Content of LAG-3 in CLL cells, ELISA with human lymphocyte activation gene 3 detection kit. The following applies: 48 h. Format: cell-based. Here is the method: as §1
Assay [3] concerns LAG-3 gene. Put plainly: Expression of LAG-3 gene in CLL cells by RT-PCR. Format: cell-based, human. As to conditions: 48 h, vs blank control group (*p<0.05). Here is the method: (§2) CLL cells and JurkatE6-1 cells in exponential phase of growth with good conditions were inoculated in 6 well plate at a concentration of 5×10^5/ml. Each kind of cells were set four groups, and each group has three repeat holes for administration. Amongst, three chlorogenic acid groups received the drug dissolved in blank 1640 medium (1 mL) at the desired concentration, while the blank control group received the same volume of blank 1640 medium.
(§3) Using RNA prep Pure cultured cell/bacteria total RNA extraction kit (centrifugal column), total RNA was extracted from cells, and the operative procedures were carried out as the instructions. The detailed extraction procedures are briefly described as follows:
(§4) Using cDNA first strand synthesis kit and the resultant RNA solution by above extraction, the corresponding first strand cDNA was synthesized. The detailed reverse transcription procedures were carried out according to the instructions, that is briefly described as follows:
(§5) Because EvaGreen fluorescent dye can produce strong fluorescence when binding with the double-stranded DNA, the total amount of DNA formed by reaction can be obtained by detecting the final fluorescence intensity. To the test tube, were added fluorescent dye, cDNA product synthesized in steps (1) and (2), LAG-3 primer (Forward primer SEQ ID NO: 1 5′-[…]-3′, downstream primer SEQ ID NO: 2 5′-[…]-3′), and well mixed, then subjected to RT-PCR measurement. Amongst, […] group was set for each sample for calculating the relative magnitude, to perform the relative quantitation.

For assay [4], the system named is LAG-3 gene. Put plainly: Expression of LAG-3 gene in JurkatE6-1 cells by RT-PCR. Format: cell-based, human. As to conditions: 48 h, vs blank control group (*p<0.05). The method, then:
as §2, §3, §4, §5

The subject of assay [5] is CD3+T lymphocytes and CD4+T lymphocytes. Put plainly: T cell proliferation in peripheral blood of GL261 glioma mice. As to conditions: 40 mg/kg intraperitoneal, 7 days, vs saline control group. In kind it is in vivo, C57BL/6 mice. Here is the method:
GL261 glioma cells in exponential phase of growth were prepared as GL261 single cell suspension at a concentration of 5×10^5/μL. After anesthetized with 0.75% pentobarbital sodium at 6 μL/g, the hair at the puncture site was stripped, and the heads of mice were fixed with ALC-H mouse brain stereotactic apparatus for longitudinal incision of scalp. […] GL261 single cell suspension was injected using micro pump at 2.5 μL/min, and the pinpoint was sealed with bone wax, then the incision of scalp was carefully sutured. Totally, 35 mice were inoculated, and the remained 5 mice were normal. The dead mice were removed, and C57BL/6 mice inoculated with GL261 glioma cells were randomly divided to 3 groups, including the saline control group (NC group), chlorogenic acid injection group (CA group), and temozolomide (TMZ) positive control group. Amongst, CA group is intraperitoneally injected with 40 mg/kg chlorogenic acid everyday, NC group is injected with the same volume of saline, and TMZ treatment group orally takes 20 mg/kg temozolomide. [table] […] Detecting the proliferation status of T lymphocytes may reflect the strong/weak inhibitory action of LAG-3. […]

The mark [6] stands for this setting: high dose 100 μM, vs blank control group (*p<0.05).
Setting [7] is: middle dose 50 μM, vs blank control group (*p<0.05).

With `O=C(/C=C/c1ccc(O)c(O)c1)O[C@@H]1C[C@](O)(C(=O)O)C[C@@H](O)[C@H]1O` [chlorogenic acid, 3-o-caffeoylquinic acid], the “average percentage of LAG-3 protein high expression” value in the assay on LAG-3 protein amounted to 23.78%. Also, the “content of LAG-3” value in the assay with LAG-3 [1] (setting [6]) is “obviously different”; in the assay on LAG-3 [1] (low dose 10 μM), “lowered”; in the assay on LAG-3 [1] (setting [7]) it was “obviously different”; with LAG-3 [2] (setting [6]) it was “obviously different”; in the assay with LAG-3 [2] (low dose 10 μM), “lowered”; with LAG-3 [2] (setting [7]), “obviously different”. Also, the “expression level of LAG-3 gene” value in the assay on LAG-3 gene [3] (high dose 100 μM) is listed as “obviously different”; in the assay on LAG-3 gene [3] (low dose 10 μM), “obviously different”; in the assay with LAG-3 gene [3] (middle dose 50 μM), “obviously different”; in the assay with LAG-3 gene [4] (high dose 100 μM), “obviously reduced”; in the assay with LAG-3 gene [4] (low dose 10 μM) it was “obviously reduced”; with LAG-3 gene [4] (middle dose 50 μM), “obviously reduced”. Besides, the “percentage of CD3+T lymphocytes in peripheral blood lymphocytes” value in assay [5] is “obviously promote the proliferation”. Further, in assay [5], the “percentage of CD4+T lymphocytes in peripheral blood lymphocytes” value is recorded as “obviously promote the proliferation”.

For the molecule `Cn1nnc2c(C(N)=O)ncn2c1=O` [temozolomide, reference compound], in the assay with LAG-3 protein, the “average percentage of LAG-3 protein high expression” value was 44.83%.

(Values after US11135160B2, “Use of chlorogenic acid in preparing pharmaceuticals for treatment of LAG-3-mediated disease” (SICHUAN JIUZHANG BIOLOGICAL SCIENCE AND TECHNOLOGY CO. LTD, priority 2016, dated 2021).)
